The record followed here is patent EP0181128A2, “N6-bicycloadenosines” (WARNER-LAMBERT COMPANY, priority 1984, dated 1986).

Molecules are shown by their SMILES. Read-outs that look alike come from different tables or passages of the source.

For assay [1], the system named is Carrageenan pleurisy. The experiment in a line: Carrageenan pleurisy assay (immunoinflammatory test). The class given is in vivo, rats. The conditions noted are these: Rattus norvegicus; for ED50: 4 h, four hours after carrageenan, compound given one hour prior to carrageenan. On the procedure: Assessment of immunoinflammatory or antiinflammatory activity is provided by the carrageenan pleurisy assay. Carrageenan pleurisy is induced as previously described by Carter, G. W., et al., in J. Pharm. Pharmacol 34:66-67, 1982. Carrageenan (310 ug/rat) is injected intrapleurally in a 0.25 ml volume of pyrogen-free saline. Four hours later, the rats are sacrificed and 2 ml of a phenol red solution (325 mg phenol red in 1 liter of 0.05 M phosphate buffered saline) are added to each pleural cavity. The contents of the cavities are mixed and transferred to glass test tubes. A 50 ul aliquot is removed from each tube and exudate cells are counted after red blood cells lysis (with Zapoglobin; Coulter Electronics, Hialeah FL) using a Coulter model ZBI counter. The remaining exudate-phenol red mixture is centrifuged at 750 xg for 15 minutes. One hundred µl of the supernatent fluid is diluted with 3.9 ml of phosphate buffer (0.072 M of tribasic sodium phosphate, Na3PO4·12H2O, in water) and the absorbance is measured at 560 nm.
Exudate volume is calculated as follows: [formula] where V1 = unknown volume of exudate, V2 K volume of dye added to cavity (2 ml), A1 = absorbance of exudate (assumed to be zero), A2 = absorbance of the phenol red solution, A3 = absorbance of exudate and phenol red solution.
Inhibition of exudate or formation is calculated by the following equations: [formula] [formula] ID50 values are calculated by Probit analysis.
The compound of Example 1 was administered one hour prior to carrageenan injection.

The target of assay [2] is T1, adenosine A1 receptor (Rattus norvegicus, UniProt P25099).
T1 sequence (P25099 1-326): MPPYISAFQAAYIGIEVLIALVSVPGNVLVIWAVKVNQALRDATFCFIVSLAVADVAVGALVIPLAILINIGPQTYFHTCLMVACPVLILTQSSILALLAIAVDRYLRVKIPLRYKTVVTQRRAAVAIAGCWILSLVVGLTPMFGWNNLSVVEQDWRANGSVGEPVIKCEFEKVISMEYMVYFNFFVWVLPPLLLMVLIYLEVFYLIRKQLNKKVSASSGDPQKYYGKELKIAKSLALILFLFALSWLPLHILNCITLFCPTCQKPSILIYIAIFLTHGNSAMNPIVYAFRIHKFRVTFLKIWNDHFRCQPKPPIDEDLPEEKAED
The experiment in a line: Adenosine Receptor Binding - A1 Receptor Affinity (RBA1), [3H]-CHA displacement in brain membranes. More on the design: species or system rats. The conditions noted are these: 1.0 nM [3H]-CHA, rat whole brain membranes, one hour at 25°C; read-out: RBA-1. On the procedure: Adenosine Receptor Binding - A1 Receptor Affinity (RBA1)
The supernatant was discarded, and the pellet was resuspended and centrifuged as before.
Incubation volume was 2 ml. Unbound [^3H]-CHA was separated by rapid filtration under reduced pressure through Whatman glass fiber (GF/B) filters.
Nonspecific binding was defined as the binding which occurred in the presence of 1 mM theophylline. […] Since the amount of radioligand bound was a small fraction of the total amount added, free radioligand was defined as the concentration (nM) of radioligand added to the incubation mixture.

In assay [3] the target is adenosine A2 receptor (Rattus norvegicus, UniProt P30543). The experiment in a line: Adenosine Receptor Binding - A2 Receptor Affinity (RBA2), [3H]NECA displacement in striatal membranes. The arrangement: species or system rats. The conditions noted are these: 4 nM [3H]NECA, 50 nM N6-cyclopentyladenosine, 60 minutes at 25°C, read-out: RBA-2. On the procedure:
Adenosine Receptor Binding - A2 Receptor Affinity (RBA2)
Brains from 200-500 g mixed sex Sprague-Dawley rats were purchased from Pel-Freez (Rogers, Arkansas). […] Brains were thawed and then kept on ice while the striata were dissected out. […] When needed, tissue was thawed at room temperature, disrupted in a Polytron, and kept on ice until used.
Test compounds were dissolved at 10 mM in dimethylsulfoxide on the same day as the experiment, and diluted in dimethylsulfoxide to 100x the final incubation concentration. […] [^3H]NECA was diluted to 40 nM in Tris. […] After all additions, the rack of tubes was vortexed, and the tubes were then incubated for 60 min at 25°C in a shaking water bath. The rack of tubes was vortexed an additional time halfway through the incubation.
Incubations were terminated by filtration through 2.4 cm GF/B filters under reduced pressure. Each tube was filtered as follows: the contents of the tube were poured onto the filter, 4 ml of ice-cold Tris were added to the tube and the contents poured onto the filter, and the filter was washed twice with 4 ml of ice-cold Tris. The filtration was complete in about twelve seconds. Filters were put in scintillation vials, 8 ml of Formula 947 scintillation fluid added, and the vials left overnight, shaken, and counted in a liquid scintillation counter at 40% efficiency.

Assay [4] relates to male Swiss-Webster mice. The experiment in a line: Antiwrithing (AW) test (analgesic test), acetic acid-induced writhing. The class given is in vivo. The conditions noted are these: Mus musculus, sc; subcutaneous, 20 minutes before acetic acid (0.6%, 10 ml/kg) i.p.; dose suppressing writhing by 50%. On the procedure:
The antiwrithing (AW) test provides preliminary assessment of compounds with potential analgesic activity. The test is performed in male Swiss-Webster mice. Compounds are administered subcutaneously in aqueous 0.2% methylcellulose or other appropriate vehicles in volumes of 10 ml/kg. Dosages represent active moiety.
Acetic acid (0.6%, 10 ml/kg) is injected intraperitoneally 20 minutes after administration of the adenosine agonist. Writhing movements are counted for five minutes starting seven minutes after the acetic acid injection. Writhing is defined as abdominal constriction and stretching of the body and hind legs with concave arching of the back. Data are.expressed as ED50 values, where the ED50 is the dose necessary to suppress writhing by 50% relative to vehicle controls. ED50 values are calculated by nonlinear regression analysis.

adenosine A2 receptor, sequence (P30543 whole entry): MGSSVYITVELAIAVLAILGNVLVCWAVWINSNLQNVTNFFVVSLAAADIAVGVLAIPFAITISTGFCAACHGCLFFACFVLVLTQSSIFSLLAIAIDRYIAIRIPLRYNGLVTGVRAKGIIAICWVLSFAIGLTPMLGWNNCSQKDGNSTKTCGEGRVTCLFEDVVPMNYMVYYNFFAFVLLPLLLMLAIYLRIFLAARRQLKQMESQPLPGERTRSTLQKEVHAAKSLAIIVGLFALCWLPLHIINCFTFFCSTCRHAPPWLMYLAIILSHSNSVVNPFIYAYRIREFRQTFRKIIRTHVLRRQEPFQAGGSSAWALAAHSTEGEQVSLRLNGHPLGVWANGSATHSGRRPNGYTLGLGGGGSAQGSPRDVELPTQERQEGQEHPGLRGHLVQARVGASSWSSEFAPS

What is called inhibition is how much of the control response was suppressed. For the compound `OCC1OC(n2cnc3c(NC4CC5CCC4C5)ncnc32)C(O)C1O` (stereo not drawn) [Example 2, N6-exo-Bicyclo[2.2.1]heptyladenosine], in assay [1] (read-out: % Inhibition Exudate), the inhibition at 0.3 mg/kg was found to be 24.3% and the inhibition at 1 mg/kg is 22.9%. For the same compound, in assay [1] (read-out: % Inhibition WBC), the inhibition at 0.3 mg/kg is 25.7% and the inhibition at 1 mg/kg is 52.9%. The IC50 in assay [2] worked out at 1.4 nM.

In the case of `OC1C(CCl)OC(n2cnc3c(NC4CC5CCC4C5)ncnc32)C1O` (stereo not drawn) [Example 5, N6-2-endo-norbornyl-5'-chloro-5'-deoxy-adenosine], the inhibition at 0.1 mg/kg in assay [1] (read-out: % Inhibition Exudate) turned out to be 11.7%; in assay [1] (read-out: % Inhibition WBC) it was 18.4%. Also, the inhibition at 0.3 mg/kg turned out to be 16.8% in assay [1] (read-out: % Inhibition Exudate) and 40% in assay [1] (read-out: % Inhibition WBC). Moreover, the IC50 in assay [2] was 0.69 nM; in assay [3], 3090 nM.

Compound `OCC1OC(n2cnc3c(NC4CC5CCC4C5)ncnc32)C(O)C1O` (stereo not drawn) [Example 1, N6-endo-Bicyclo[2.2.1]heptyl adenosine] yielded an ED50 in assay [4] of 0.03 mg/kg. The ED50 in assay [1] (exudate cells (WBC), read-out: ID50 (mg/kg) WBC) is 0.12 mg/kg. Further, the ED50 in assay [1] (exudate volume, read-out: ID50 (mg/kg) Exudate) was found to be 0.15 mg/kg. Moreover, in assay [1] (read-out: % Inhibition Exudate), the inhibition at 0.1 mg/kg worked out at 49.3%, the inhibition at 0.2 mg/kg stood at 60%, the inhibition at 0.4 mg/kg amounted to 81.3% and the inhibition at 0.8 mg/kg worked out at 42.7%. Besides, in assay [1] (read-out: % Inhibition WBC), the inhibition at 0.1 mg/kg came out at 74.1%, the inhibition at 0.2 mg/kg was determined as 70%, the inhibition at 0.4 mg/kg amounted to 90% and the inhibition at 0.8 mg/kg came to 68.4%. Further, in assay [2], the IC50 worked out at 0.85 nM.
